Experimental data published in patent US9782368B2, “Use of N,N-bis-2-mercaptoethyl isophthalamide” (EMERAMED LIMITED, priority 2014, dated 2017).

Legend:
[1] = tested on: IL-6 and IL-8 secretion in BEAS-2B cells; experiment: Particle-induced secretion of pro-inflammatory cytokines (ELISA) in BEAS-2B cells; format: cell-based
Method: (§1) Secretion of the pro-inflammatory cytokines interleukin (IL)-6, IL-8 (as well as GM-CSF and MCP-1) into cell media in response to particle exposure was measured in A549 and BEAS-2B cells using the following method.
(§2) Lung epithelial cells were seeded at 5×10^4 in 24-well plates. After pre-incubation with NBMI, the anti-oxidant compound, N-acetyl-L-cysteine (NAC), which was used as a positive control, or vehicle, for 3 hours the medium was removed.
(§3) Fresh media containing various particles (as below) in different concentrations was in a total volume of 0.5 ml for an additional 24 hours. The supernatants were then separated from the cells by centrifugation.
(§4) IL-8, IL-6, GM-CSF and MCP-1 were measured in the cell free fluid using the DuoSet ELISA Development kit (R&D Systems, Abingdon, UK) according to manufacturer's protocol.
(§5) Exposure to medium only served as negative control. Each experiment was performed twice with 4 replicates.
(§6) The effect of pre-incubation with 50 μM NBMI on particle-induced cytokine formation was tested at various concentrations of relevant particles.

[2] = Ascorbate depletion assay, CuSO4-sponsored oxidation, recycling of DHA; settings: CuSO4 model
Method: The kinetics of ascorbate oxidation, sponsored by both 1 μM 9,10-PQ and 2 μM copper sulphate (CuSO4), was examined using the ascorbate depletion assay (Kelly et al, Res. Rep. Health Eff. Inst., 163, 3 (2011). 9,10-PQ was employed so that the action of NBMI could be examined in isolation of its chelation properties.
All experiments were performed in triplicate in UV 96 well flat-bottomed plates (Greiner bio-one) at a final volume of 200 μL. Exposures were initiated by the addition of 20 μL of a concentrated stock of ascorbate (2 mM) into each well containing 160 μL of Chelex-100 resin treated water (containing 10% DMSO), plus either 10 μL of water, CuSO4 stock solution at 4 mM or 9,10-PQ stock solution at 2 mM, and 10 μL of NMBI (4 mM and […]).
All solutions were prepared in Chelex-100 resin treated water (containing 10% DMSO). This yielded final concentrations in the wells of […], 2 μM CuSO4, or 1 μM 9,10-PQ and between 10 and 200 μM of NBMI.
Immediately prior to the addition of the ascorbate to each assay well, the plate was pre-incubated for 10 minutes at 37° C. in a plate reader (Spectra Max 190). During the exposure, the plate was maintained at this temperature. After addition of ascorbate, the concentration remaining in each well was monitored every 2 minutes for a period of two hours by measuring the absorbance at 265 nm. The ascorbate concentration was determined with reference to a standard curve, with the rate of ascorbate oxidation determined by performing a linear regression through the initial part of a concentration verses time plot using Microcal Software Limited's OriginLab (version 5.0). This was performed for each of the triplicates and the rate of ascorbate depletion was finally expressed as mean mol s 1×10^−9 depletion of ascorbate±standard deviation.
For the experiments in which the impact of adding NBMI to the ascorbate was measured, CuSO4 and 9,10-PQ depletion assays were examined later in the time course. The plates were ran with 190 μL only for the first 55-60 minutes, after which they were removed from the plate reader and 10 μL of either the NMBI or the known reducing agent, DTT stock solution, or water was added to each well. The plate was then returned to the plate reader and the absorbance at 265 nm monitored for a further 60 minutes.
The immediate increase in the measured ascorbate concentrations was determined and is referred to as the ‘jump’, as a measure of immediate recycling capacity. The sustained ‘increase’ over the remaining 60 minutes of the incubation was also determined.

[3] = tested on: IL-6 and IL-8 secretion in A549 cells; experiment: Particle-induced secretion of pro-inflammatory cytokines (ELISA) in A549 cells; format: cell-based; settings: A549 cells
Method: as §1, §2, §3, §4, §5, §6

[4] = TiO2 P25 100 μg/cm^2, pre-incubation 50 μM NBMI
[5] = Urban Dust 100 μg/cm^2, pre-incubation 50 μM NBMI
[6] = TiO2 P25 75 μg/cm^2, pre-incubation 50 μM NBMI

## O=C(NCCS)c1cccc(C(=O)NCCS)c1 [NBMI, N,N-bis-2-mercaptoethyl isophthalamide]
[1]; [4]
  reduction of secretion of IL-6: 37%
  reduction of secretion of IL-8: 49%
[1]; [5]
  reduction of secretion of IL-6: 47%
[2]; 200 μM added at 60 minutes
  immediate 'jump' in ascorbate concentration: 24.98 ± 5.54 µM
  sustained 'increase' in ascorbate over remaining 60 minutes: 25.45 ± 2.45 µM
[2]; addition at 10, 20 and 30 minutes
  subsequent rate of oxidation after addition: quenched
[3]; [6]
  reduction of secretion of IL-6: 38%
  reduction of secretion of IL-8: 29%
[3]; [5]
  reduction of secretion of IL-6: 38%
  reduction of secretion of IL-8: 30%
